In publication PMC6114901, “An automated screening method for detecting compounds with goitrogenic activity using transgenic zebrafish embryos” (PLoS ONE, 2018):
Where two headings read alike, the source gives them in different places.

System: zebrafish embryos
Test: in vivo
Settings: for LC10: unit not given, in µM; for Slope: mortality concentration-response curve
Experimental: Fish embryo acute toxicity tests were performed similar as described previously, using 10 or 25 embryos per concentration and replicate exposed in crystallization dishes from 48 to 120 hpf. No exchange of exposure media was performed. Lethality was identified by coagulation, missing heartbeat, a non–detached tail and/or missing of somites. Raw data for mortality and phenotypic assessment are provided as S1 Table. Concentration-response curves for mortality are shown in S2 Fig.

[1] = 72 hpf, 77.18 µmol/L, replicate 2, 11 embryos
[2] = 72 hpf, 115.76 µmol/L, replicate 2, 9 embryos
[3] = 72 hpf, 173.64 µmol/L, replicate 2, 8 embryos
[4] = 72 hpf, 260.47 µmol/L, replicate 2, 10 embryos
[5] = 72 hpf, 390.70 µmol/L, replicate 2, 10 embryos
[6] = 120 hpf, 25 µmol/L, replicate 1, 25 embryos
[7] = 120 hpf, 50 µmol/L, replicate 1, 25 embryos
[8] = 120 hpf, 77.18 µmol/L, replicate 2, 11 embryos
[9] = 120 hpf, 100 µmol/L, replicate 1, 25 embryos
[10] = 120 hpf, 115.76 µmol/L, replicate 2, 9 embryos
[11] = 120 hpf, 173.64 µmol/L, replicate 2, 9 embryos
[12] = 120 hpf, 200 µmol/L, replicate 1, 25 embryos
[13] = 120 hpf, 260.47 µmol/L, replicate 2, 10 embryos
[14] = 120 hpf, 390.70 µmol/L, replicate 2, 10 embryos
[15] = 120 hpf, 400 µmol/L, replicate 1, 25 embryos
[16] = mortality after 48 h of exposure, S2 Fig
[17] = mortality after 72 h of exposure, S2 Fig
[18] = sheet DCA 96 hpf (head prints 72 hpf), 77.18 µmol/L, replicate 2, 10 embryos
[19] = sheet DCA 96 hpf (head prints 72 hpf), 115.76 µmol/L, replicate 2, 9 embryos
[20] = sheet DCA 96 hpf (head prints 72 hpf), 173.64 µmol/L, replicate 2, 8 embryos
[21] = sheet DCA 96 hpf (head prints 72 hpf), 260.47 µmol/L, replicate 2, 10 embryos
[22] = sheet DCA 96 hpf (head prints 72 hpf), 390.70 µmol/L, replicate 2, 10 embryos
[23] = 72 hpf, 15000 µmol/L, replicate 2, 10 embryos
[24] = 72 hpf, 30000 µmol/L, replicate 2, 10 embryos
[25] = 72 hpf, 50000 µmol/L, replicate 1, 10 embryos
[26] = 72 hpf, 100000 µmol/L, replicate 1, 10 embryos
[27] = 96 hpf, 20000 µmol/L, replicate 2, 10 embryos
[28] = 96 hpf, 25000 µmol/L, replicate 2, 10 embryos
[29] = 96 hpf, 30000 µmol/L, replicate 2, 10 embryos
[30] = 96 hpf, 50000 µmol/L, replicate 1, 10 embryos
[31] = 96 hpf, 50000 µmol/L, replicate 2, 10 embryos
[32] = 96 hpf, 100000 µmol/L, replicate 1, 10 embryos
[33] = 120 hpf, 10000 µmol/L, replicate 1, 10 embryos
[34] = 120 hpf, 15000 µmol/L, replicate 2, 10 embryos
[35] = 120 hpf, 20000 µmol/L, replicate 2, 10 embryos
[36] = 120 hpf, 25000 µmol/L, replicate 1, 10 embryos
[37] = 120 hpf, 25000 µmol/L, replicate 2, 10 embryos
[38] = 120 hpf, 30000 µmol/L, replicate 2, 10 embryos
[39] = 120 hpf, 40000 µmol/L, replicate 2, 10 embryos
[40] = 120 hpf, 50000 µmol/L, replicate 1, 10 embryos
[41] = 120 hpf, 50000 µmol/L, replicate 2, 10 embryos
[42] = 120 hpf, 100000 µmol/L, replicate 1, 10 embryos

Nc1ccc(Cl)c(Cl)c1 [3,4-DCA, 3,4-dichloroaniline]
5: Lethal effects k/f [13] | Lethal effects nohb [13] | Sublethal effects mch [19] | Sublethal effects nomov [19]
6: Lethal effects k/f [10] | Sublethal effects EdY / EdP [18] | Sublethal effects mch [20]
0: No Surviving [9] | No Surviving [12] | No Surviving [13] | No Surviving [14] | No Surviving [15] | No Surviving [22]
25: Lethal effects k/f [9] | Lethal effects k/f [12] | Lethal effects k/f [15]
3: No hatched [5] | Sublethal effects mch [5] | Sublethal effects tip [5] | Lethal effects k/f [6] | No Surviving [10] | Lethal effects k/f [11] | Lethal effects nohb [11] | No Surviving [11] | Sublethal effects EdY / EdP [11] | Sublethal effects nobc [11] | Sublethal effects nomov [11] | Sublethal effects tip [11]
21: Lethal effects k/f [7]
1.53: Slope (72 h of exposure)
306: LC10 [16]
14.1: LC10 [17]
11: No Surviving [1] | No Surviving [8]
7: No hatched [2] | Sublethal effects Total Sublethal [2] | Sublethal effects tip [2] | No hatched [3] | Sublethal effects Total Sublethal [3] | Sublethal effects tip [3]
22: No Surviving [6]
55.5: Slope (48 h of exposure)
9: No hatched [1] | Sublethal effects Total Sublethal [1] | Sublethal effects tip [1] | No Surviving [2] | No hatched [11] | No Surviving [19] | Sublethal effects Total Sublethal [20] | Sublethal effects nobc [20] | Sublethal effects nomov [20] | Sublethal effects tip [20] | Lethal effects nohb [22]
1: Sublethal effects EdY / EdP [4] | Sublethal effects mch [10] | Sublethal effects Ydef [11] | Sublethal effects mch [11] | Sublethal effects Ydef [20] | Lethal effects k/f [22]
8: No Surviving [3] | No hatched [8] | Sublethal effects EdY / EdP [8] | Sublethal effects Total Sublethal [8] | Sublethal effects nobc [8] | Sublethal effects nomov [8] | Sublethal effects tip [8] | No hatched [10] | Lethal effects k/f [14] | No hatched [18] | Sublethal effects Total Sublethal [18] | Sublethal effects tip [18] | No hatched [19] | Sublethal effects Total Sublethal [19] | Sublethal effects tip [19] | No Surviving [20]
4: Sublethal effects mch [2] | Sublethal effects mch [3] | No hatched [4] | Sublethal effects Total Sublethal [4] | Sublethal effects tip [4] | No Surviving [7] | Sublethal effects mch [8] | No hatched [13] | No hatched [14] | No hatched [21] | Sublethal effects EdY / EdP [21] | Sublethal effects Total Sublethal [21] | Sublethal effects nobc [21] | Sublethal effects nomov [21] | Sublethal effects tip [21] | No hatched [22]
2: Sublethal effects mch [4] | Sublethal effects EdY / EdP [10] | Sublethal effects nobc [10] | Sublethal effects nomov [10] | Sublethal effects tip [10] | Lethal effects nohb [14] | Sublethal effects mch [18] | Sublethal effects mch [21]
10: No Surviving [4] | No Surviving [5] | Sublethal effects EdY / EdP [5] | Sublethal effects Total Sublethal [5] | No Surviving [18] | No Surviving [21]

[K+].[O-][Cl+3]([O-])([O-])[O-] [Potassium perchlorate, potassium perchlorate]
5: Sublethal effects beh [26] | No Surviving [30] | Lethal effects nohb [34] | Sublethal effects Total Sublethal [34] | Sublethal effects mtail [34] | No Surviving [41] | Sublethal effects Total Sublethal [41] | Sublethal effects nobc [41]
3: Lethal effects k/f [25] | Sublethal effects nomov [26] | Lethal effects nohb [27] | Sublethal effects Total Sublethal [30]
7: No Surviving [25] | No Surviving [27] | No Surviving [39] | Sublethal effects Total Sublethal [39] | Sublethal effects nobc [39]
3232: LC10 [17]
6: Lethal effects nohb [28] | No Surviving [35] | Sublethal effects Total Sublethal [35] | Sublethal effects nobc [35] | No Surviving [40] | Sublethal effects Total Sublethal [40] | Sublethal effects nobc [40]
33.1 mM: LC50 (mortality after 72 h of exposure, S2 Fig, unit inferred) | LC50 (read-out: LC50 (48–120 hpf), mortality, embryos exposed 48–120 hpf)
9: No Surviving [24] | No Surviving [26] | Lethal effects nohb [29] | No Surviving [31] | No Surviving [33] | Lethal effects nohb [36] | No Surviving [38] | Sublethal effects Total Sublethal [38] | Sublethal effects nobc [38]
8: Sublethal effects Total Sublethal [26]
2: Sublethal effects nobc [30] | Lethal effects nohb [37] | Lethal effects nohb [39]
1: Sublethal effects mtail [23] | Lethal effects k/f [24] | Sublethal effects tip [25] | Lethal effects nohb [26] | Sublethal effects Total Sublethal [27] | Sublethal effects mtail [27] | Lethal effects k/f [29] | Lethal effects k/f [30] | Sublethal effects nomov [30] | Sublethal effects tip [30] | Lethal effects k/f [31] | Lethal effects nohb [33] | Sublethal effects EdY / EdP [33] | Sublethal effects Total Sublethal [33] | Lethal effects k/f [34] | No Surviving [36] | Sublethal effects Total Sublethal [36] | Sublethal effects nobc [36] | Lethal effects k/f [38] | Lethal effects k/f [39] | Lethal effects nohb [41]
10862: LC10 [16]
50.3 mM: LC50 (mortality after 48 h of exposure, S2 Fig, unit inferred)
0: No Surviving [32] | No Surviving [42]
10: No Surviving (72 hpf, 1000 µmol/L, replicate 1, 10 embryos) | No Surviving (72 hpf, 5000 µmol/L, replicate 1, 10 embryos) | No Surviving (72 hpf, 10000 µmol/L, replicate 1, 10 embryos) | No Surviving [23] | No Surviving (72 hpf, 20000 µmol/L, replicate 2, 10 embryos) | No Surviving (72 hpf, 25000 µmol/L, replicate 1, 10 embryos) | No Surviving (72 hpf, 25000 µmol/L, replicate 2, 10 embryos) | No Surviving (72 hpf, 40000 µmol/L, replicate 2, 10 embryos) | No Surviving (72 hpf, 50000 µmol/L, replicate 2, 10 embryos) | No Surviving (96 hpf, 1000 µmol/L, replicate 1, 10 embryos) | No Surviving (96 hpf, 5000 µmol/L, replicate 1, 10 embryos) | No Surviving (96 hpf, 10000 µmol/L, replicate 1, 10 embryos) | No Surviving (96 hpf, 15000 µmol/L, replicate 2, 10 embryos) | No Surviving (96 hpf, 25000 µmol/L, replicate 1, 10 embryos) | No Surviving (96 hpf, 40000 µmol/L, replicate 2, 10 embryos) | Lethal effects nohb [32] | Sublethal effects nobc [32] | No Surviving (120 hpf, 1000 µmol/L, replicate 1, 10 embryos) | No Surviving (120 hpf, 5000 µmol/L, replicate 1, 10 embryos) | Lethal effects nohb [42]
1.43: Slope (48 h of exposure)
4: No Surviving [28] | Sublethal effects Total Sublethal [28] | Sublethal effects nobc [28] | Lethal effects nohb [30] | No Surviving [34] | Lethal effects k/f [35] | Lethal effects k/f [37] | No Surviving [37] | Sublethal effects Total Sublethal [37] | Sublethal effects nobc [37] | Lethal effects nohb [40] | Lethal effects k/f [41]
0.944: Slope (72 h of exposure)
